Source: US20120190620A1, “METHODS TO IDENTIFY TARGETS AND MOLECULES REGULATING PURINOSOMES AND THEIR USES” (priority 2010, published 2012)

Experiments:
Type in all cases: cell-based, human
[1] = system: HeLa cells; assay: Purinosome dynamics DMR screen, sequential order molecule, DMAT, TBB; conditions: for modulation of the DMAT signal / modulation of the TBB signal: adrenergic receptor ligand library, order ligand, TBB, FIG. 5, DMAT
Text: A library of agonists for various different GPCRs were used to individually pretreat a confluent layer of Hela cells for about one hour, before sequential stimulation with DMAT and TBB, respectively. The responses were monitored using Epic® system.
A library of molecules targeting endogenous alpha2A and beta2 adrenergic receptors were used to individually pretreat a confluent layer of Hela cells for about one hour, before sequential stimulation with DMAT and TBB, respectively. The responses were monitored using Epic® system.
(§1) Epic® wavelength interrogation system (Corning Inc., Corning, N.Y.) was used for whole cell sensing. This system consists of a temperature-control unit, an optical detection unit, and an on-board liquid handling unit with robotics. The detection unit is centered on integrated fiber optics, and enables kinetic measures of cellular responses with a time interval of ˜15 sec. The compound solutions were introduced by using the on-board liquid handling unit (i.e., pippetting).
(§2) For biosensor cellular assays, compound solutions were made by diluting the stored concentrated solutions with the HBSS (1× Hanks balanced salt solution, plus 20 mM Hepes, pH 7.1), and transferred into a 384 well polypropylene compound storage plate to prepare a compound source plate. Two compound source plates were made separately when a two-step assay was performed. In parallel, the cells were washed twice with the HBSS and maintained in 30 μl of the HBSS to prepare a cell assay plate. Both the cell assay plate and the compound source plate(s) were then incubated in the hotel of the reader system. After incubation the baseline wavelengths of all biosensors in the cell assay microplate were recorded and normalized to zero. Afterwards, a 2 to 10 min continuous recording was carried out to establish a baseline, and to ensure that the cells reached a steady state. Cellular responses were then triggered by transferring 10 μl of the compound solutions into the cell assay plate using the on-board liquid handler.
(§3) All studies were carried out at a controlled temperature (28° C.). At least two independent sets of experiments, each with at least three replicates, were performed.
(§4) The upstream signaling pathways linking to the purinosome is unknown at the present time. To identify cellular targets and pathways that are involved in regulating purinosome dynamics, a library of agonists for a great number of G protein-coupled receptors and membrane bound receptor tyrosine kinases was made in house, and each agonist was used to stimulate a confluent layer of Hela cells, cultured using high initial seeding number (25k per well for 384 well Epic® cell culture compatible biosensor microplates) in purine rich medium (i.e., regular 10% FCS or FBS). The concentrations for all small organic molecules were 10 micromolar, whereas 1 micromolar for all small peptides, and 100 nanomolar for all protein factors (molecular weight >15k Da). The cellular responses to each agonist were recorded for about 1 hour, and used to determine the functional expression of their corresponding cognate receptor(s).
To examine the receptor whose signaling is involved in regulating the purinosome dynamics, Hela cells were pretreated individually with each agonist for about one hour, followed by sequential stimulation with DMAT (20 micromolar) and TBB (25 micromolar), each step about 1 hour.

[2] = system: HeLa cells; assay: Epic label-free biosensor DMR assay of compound-induced signals in HeLa cells; conditions: for DMR signal induced by CK2 inhibitor: HeLa cells, regular serum medium, high initial seeding number; for effect of pretreatment on the sequential DMAT response / effect of pretreatment on the sequential TBB response: HeLa cells pretreated with the compound about 1 hr; for effect of pretreatment on the sequential DMAT response: then DMAT; for effect of pretreatment on the sequential TBB response: then TBB
Text: HeLa cells were obtained from American Type Cell Culture (Manassas, Va.). This cervical cancer cell line was maintained in regular serum medium (i.e., minimum essential medium (MEM) (Invitrogen) supplemented with 10% fetal bovine serum (FBS) and 1% Penicillin/streptomycin). To investigate the effects of purine depletion on the purinosome formation and dissociation, HeLa cells were maintained for at least two passages in “purine-depleted medium” prior cell assays. The purine depleted medium is a medium consisting of Roswell Park Memorial Institute 1640 (RPMI 1640) supplemented with dialyzed 5% FBS […]. FBS was dialyzed against 0.9% NaCl at 4° C. for ˜2 days using a 25 kDa MWCO dialysis membrane to remove purines. This process completely removes the purines normally present in FBS.
Cells were typically grown using ˜1 to 2×10^4 cells per well at passage 3 to 15 suspended in 50 μl of the corresponding culture medium in the biosensor microplate, and were cultured at 37° C. under air/5% CO2 for ˜1 day. The confluency for all cells at the time of assays was ˜100%.
as §1
The RWG biosensor is capable of detecting minute changes in local index of refraction near the sensor surface. Since the local index of refraction within a cell is a function of density and its distribution of biomass (e.g., proteins, molecular complexes), the biosensor exploits its evanescent wave to non-invasively detect ligand-induced dynamic mass redistribution in native cells. The evanescent wave extends into the cells and exponentially decays over distance, leading to a characteristic sensing volume of ˜150 nm, implying that any optical response mediated through the receptor activation only represents an average over the portion of the cell that the evanescent wave is sampling. The aggregation of many cellular events downstream the receptor activation determines the kinetics and amplitudes of a ligand-induced DMR.
as §2, §3

[3] = system: HeLa cells; assay: Purinosome dynamics DMR screen, sequential order molecule, TBB, DMAT; conditions: agonist library; order agonist, TBB, DMAT; FIG. 4
Text: A library of agonists for various different GPCRs were used to individually pretreat a confluent layer of Hela cells for about one hour, before sequential stimulation with TBB and DMAT, respectively. The responses were monitored using Epic® system.
(A) The dose-dependent DMR signals of Hela cells induced by alpha2A agonist clonidine. (B) The TBB DMR signal of Hela cells after pretreated with clonidine at different doses. (C) The dose-dependent DMR signals of pertussis toxin (PTX)-pretreated Hela cells induced by alpha2A agonist clonidine. (D) The TBB DMR signal of the PTX-pretreated Hela cells after stimulated with clonidine at different doses. The TBB concentration was 20 μM in both (C) and (D). The clonidine pretreatment occurred about one-hour before the TBB stimulation.
as §1, §2, §3, §4

[4] = GPCR/RTK agonist library, pretreated about one hour, order agonist, DMAT (20 micromolar), TBB (25 micromolar), FIG. 3

| Compound | modulation of the DMAT signal [1] | modulation of the TBB signal [1] | further results |
| --- | --- | --- | --- |
| Clc1ccc2c(c1)C(N1CCNCC1)=Nc1ccccc1O2 [amoxapine] | potentiate | suppress | – |
| Cc1cccc(C)c1N=C1NCCCS1 [xylazine] | suppress | potentiate | – |
| O=c1cc(-c2ccc(O)cc2)oc2cc(O)cc(O)c12 [apigenin] | – | – | DMR signal induced by CK2 inhibitor [2]: DMR signals similar to the DMAT response |
| Brc1c(Br)c(Br)c2[nH]cnc2c1Br [TBBz, 4,5,6,7-tetrabromobenzimidazole] | – | – | type of CK2 inhibitor by label-free biosensor cellular assay [2]: purinosome disruption agent |
| Nc1ncnc2c1ncn2[C@@H]1O[C@H](COP(=O)(O)OP(=O)(O)OP(=O)(O)O)[C@@H](O)[C@H]1O [ATP] | – | – | modulation of the DMAT DMR signal [1, 4]: selectively suppress; modulation of the TBB DMR signal [3]: selectively potentiate |
| CCCCC[C@H](O)/C=C/[C@H]1[C@H](O)CC(=O)[C@@H]1C/C=C\CCCC(=O)O [PGE2, peostaglandin E2] | – | – | modulation of the DMAT DMR signal [1, 4]: potentiate; modulation of the TBB DMR signal [1, 4]: no or little impact; modulation of the TBB DMR signal [3]: selectively suppress |
| c1ccc2c(CC3=NCCN3)cccc2c1 [naphazoline] | suppress | potentiate | – |
| CNC[C@H](O)c1cccc(O)c1 [phenylephrine, (R)-(−)-phenylephrine] | suppress | potentiate | modulation of the DMAT DMR signal [1, 4]: suppress; modulation of the TBB DMR signal [1, 4]: potentiate; modulation of the TBB DMR signal [3]: selectively potentiate |
| CCCCC[C@H](O)/C=C/[C@H]1C(=O)C[C@H](O)[C@@H]1C/C=C\CCCC(=O)O [PGD2, prostaglandin D2] | – | – | modulation of the DMAT DMR signal [1, 4]: potentiate; modulation of the TBB DMR signal [1, 4]: no or little impact; modulation of the TBB DMR signal [3]: selectively suppress |
| NC[C@H](O)c1ccc(O)c(O)c1 [norepinephrine] | suppress | potentiate | – |
| lysophosphatidic Acid [LPA] | – | – | modulation of the DMAT DMR signal [1, 4]: selectively suppress; modulation of the TBB DMR signal [3]: selectively potentiate |
| N=C(CC(O)COc1ccccc1-c1ccccc1)N1CCCCC1 (stereo not drawn) [AH11110A] | potentiate | suppress | – |
| EGF: epidermal growth factor, the EGFR agonist (NSDSECPLSHDGYCLHDGVCMYIEALDKYACNCVVGYIGERCQYRDLKWWELR; not fully specified; Epidermal growth factor; UniProt P01133 971-1023, looked up) | – | – | modulation of the DMAT DMR signal [3]: selectively suppress |
| CNC[C@H](O)c1ccc(O)c(O)c1 [epinephrine, Epinephrine] | suppress | potentiate | modulation of the DMAT DMR signal [1, 4]: suppress; modulation of the TBB DMR signal [1, 4]: potentiate; modulation of the TBB DMR signal [3]: selectively potentiate |
| OC[C@H]1O[C@@H](n2cnc3cc(Cl)c(Cl)cc32)[C@H](O)[C@@H]1O [DRB, 5,6-Dichlorobenzimidazole 1-β-D-ribofuranoside] | – | – | effect of pretreatment on the sequential DMAT response [2]: desensitized; effect of pretreatment on the sequential TBB response [2]: slightly potentiated; DMR signal induced by CK2 inhibitor [2]: DMR signals similar to the DMAT response |
| CC(C)NCC(O)c1ccc(O)c(O)c1 (stereo not drawn) [isoproterenol] | specifically suppress | – | – |
| CCC(NC(C)C)C(O)c1ccc(O)c(O)c1 (stereo not drawn) [isoetharine] | specifically suppress | – | – |

| Compound | modulation of the DMAT signal [1] | modulation of the TBB signal [1] | further results |
| --- | --- | --- | --- |
| C[C@H](N)Cn1ccc2cc(F)c(Cl)cc21 [Ro600175] | – | – | modulation of the DMAT DMR signal [1]: potentiate; modulation of the TBB DMR signal [1]: no or little impact; modulation of the DMAT DMR signal [3]: selectively potentiate |
| N=C(N)NC(=O)Cc1c(Cl)cccc1Cl [gufacine] | suppress | potentiate | – |
| O=C(O)c1cc([N+](=O)[O-])ccc1NCCCc1ccccc1 [NPPB] | – | – | modulation of the DMAT DMR signal [1, 4]: potentiate; modulation of the TBB DMR signal [1, 4]: no or little impact |
| CC(N)C(O)c1ccc(O)c(O)c1 (stereo not drawn) [methylnorephrine] | suppress | potentiate | – |
| CNCCCC12CCC(c3ccccc31)c1ccccc12 [maprotiline] | potentiate | suppress | – |
| c1ccc2c(c1)[I+]c1ccccc1-2 [diphylpheneiodonium] | potentiate | suppress | – |
| CC(C)(Cc1c[nH]c2ccc(Cl)cc12)NCCOc1ccccc1OCC1CC1 [RS17053] | potentiate | suppress | – |
| NCCc1ccc(O)c(O)c1 [dopamine] | suppress | potentiate | modulation of the DMAT DMR signal [1, 4]: suppress; modulation of the TBB DMR signal [1, 4]: potentiate; modulation of the TBB DMR signal [3]: selectively potentiate |
| IGF1: insulin-like growth factor 1, the IGF1R agonist | – | – | modulation of the TBB DMR signal [3]: selectively potentiate |
| Clc1ccc2nsnc2c1NC1=NCCN1 [tizanidine] | suppress | potentiate | – |
| C1COC(NC(C2CC2)C2CC2)=N1 [rilmenidine] | suppress | potentiate | – |
| CC(C(O)c1ccc(O)cc1)N1CCC(Cc2ccccc2)CC1 (stereo not drawn) [ifenprodil] | potentiate | suppress | – |
| HGF: hepatocyte growth factor, the HGFR agonist | – | – | modulation of the TBB DMR signal [3]: selectively potentiate |
| N=C(N)N/N=C/c1c(Cl)cccc1Cl [guanabenz] | suppress | potentiate | – |
| CC(CCc1ccc(O)cc1)NCCc1ccc(O)c(O)c1 (stereo not drawn) [dobutamine] | specifically suppress | – | – |
| Brc1c(NC2=NCCN2)ccc2nccnc12 [UK14304] | suppress | potentiate | – |
| O=C(O)/C=C/c1cc(Br)c(Br)c(Br)c1Br [TBCA, Tetrabromocinnamic Acid] | – | – | type of CK2 inhibitor by label-free biosensor cellular assay [2]: purinosome promoting agent; effect of pretreatment on the sequential DMAT response [2]: desensitized; effect of pretreatment on the sequential TBB response [2]: slightly potentiated; DMR signal induced by CK2 inhibitor [2]: DMR signals similar to the DMAT response |
